The values below are quoted from earlier work in patent publication US8679548B2, “Active bromine containing biocidal compositions and their preparation” (Albemarle Corporation, priority 1998, dated 2014).

On to `BrBr` [Bromine (Br2), Bromine], for which the “Vapor Pressure (25° C.)” value was 214 mm.

Regarding `ClBr` [Bromine Chloride (BrCl), Bromine Chloride], the “Vapor Pressure (25° C.)” value is reported as 1800 mm.
